Reference: patent US20250289786A1, “CHLORINATED MONOCARBONYL CURCUMIN COMPOUNDS, PREPARATION METHOD, AND APPLICATION” (Southwest Medical University, priority 2024, published 2025)

How the values were obtained:
[1] = ABTS free radical capture ability; format: biochemical; details: 20 min reaction in the dark
Method: 66.2 mg of K2S2O8 was weighed and placed in a 100 mL volumetric flask, pure water was added to the scale line to prepare a 2.45 mmol/L K2S2O8 solution. 192 mg of ABTS was accurately weighed and placed in a 25 mL volumetric flask, and the newly prepared K2S2O8 solution was added for dissolving and constant volume dilution, after standing in the dark for 20 h, the ABTS mother liquor was obtained. Before use, to make the measured value more accurate, the ABTS mother liquor needs to be diluted with a PBS solution of pH7.4 until the absorbance range of the ABTS working solution at 734 nm is 0.70±0.02.
Drug concentration screening: To avoid the complete removal of free radicals by excessive drug concentration and the inability to compare the ability to capture ABTS free radicals, a preliminary screening of drug concentration is required before the formal test. A gradient concentration of compound solution was prepared, and a gradient concentration of Vit C solution was prepared as a positive control. A total of 450 μL of ABTS working solution was accurately absorbed into a 1.5 mL EP tube, and 150 μL of the gradient solution of each group of drugs was added, after 20 min of reaction in the dark, 150 μL of the reaction solution was taken and placed in a 96-well plate, the absorbance was measured by a microplate reader. Three duplicate wells were set for each concentration, and the drug concentration with absorbance between 0.2-0.7 was selected for subsequent determination.
Determination operation: After the drug concentration screening was completed, 7 concentration gradient groups were set within this concentration range. A total of 450 μL of ABTS working solution was accurately absorbed into a 1.5 mL EP tube, and 150 μL of the gradient solution of each group of drugs was added. After 20 min of reaction in the dark, 150 μL of the reaction solution was taken and placed in a 96-well plate, the absorbance was measured by a microplate reader. Three duplicate wells were set for each concentration, the positive control group was a gradient solution of Vit C, and the blank control group was an equal volume of anhydrous ethanol.

[2] = system: CUMS depression model mice; assay: Forced swimming test in CUMS depression model mice; format: in vivo, C57BL/6J mice; details: for forced swimming test, depressive symptoms / immobility time: 14th day, in words; for immobility time in the forced swimming test: 28 days
Text: (§1) After one week of adaptive feeding, the newly purchased mice were divided into a blank group and CUMS model group. The mice in the blank group were not subjected to behavioral intervention and were fed normally. Mice in the model group were given 1-2 unpredictable behavioral stimuli every day. […] When the same stimulation is continuous, the stimulation method is changed to ensure that the same stimulation is not continuous, and the model construction period is 42 days.

[3] = Solubility detection of CAK01-CAK07; format: physicochemical
Text: The chlorinated monocarbonyl curcumin compounds CAK01-CAK07 prepared under the conditions of Example 1 were taken for nuclear magnetic resonance, mass spectrometry, solubility, and melting point detection.

[4] = system: BV2 cells; assay: NO release in LPS-induced BV2 cell stress; format: cell-based; details: 1 μg/mL LPS; for NO release versus model group: 24 h, in words
Text: (§2) When the body is in a long-term stress and stress state, a large number of oxidizing substances and inflammatory factors accumulate in the body, causing depression and inducing depression-like symptoms. LPS is a pro-inflammatory substance, which can induce the increase of inflammatory factors, the accumulation of reactive oxygen species ROS and the release of NO in BV2 cells. The anti-inflammatory and antioxidant effects of drugs can be evaluated by establishing an LPS stress model.
NO detection: When BV2 cells grew to the logarithmic growth phase, they were inoculated in a 6-well plate at 1×10^6 cells/well and cultured for 24 h. Then the original medium was replaced with CAK06 fresh DMEM high glucose medium containing high (10 μM), medium (5 μM), and low (1 μM) concentrations, and three duplicate wells were set up in each group. After the cells were treated with compound CAK06 for 12 h, the supernatant of the culture medium was centrifuged and stained according to the instructions of the NO detection kit, and the absorbance was detected at a wavelength of 540 nm.

[5] = system: Nrf2, HO-1, BDNF, and TrkB in the hippocampus; assay: Western blot of hippocampal proteins in CUMS depression model mice; format: in vivo; details: low dose, in words
[6] = system: PC12 cells; assay: Inhibition of H2O2-induced oxidative damage in PC12 cells; format: cell-based, rat
Method: After 24 hours of incubation in the incubator, the relative proliferation rates of the cells were calculated according to the method under Section 2.1.

[7] = system: BV2 cells; assay: ROS detection (DCFH-DA) in LPS-induced BV2 cells; format: cell-based; details: 10, 5 and 1 μM with LPS, in words
Text: as §2
ROS detection: The fluorescent dye probe DCFH-DA can freely pass through the BV2 cell membrane, and the dye entering the cell is enzymatically hydrolyzed to DCFH, at this time, it can no longer pass through the cell membrane. The intracellular ROS can oxidize DCFH to DCF with fluorescence, which can reflect the ROS content by detecting the fluorescence intensity of DCF. The specific operation is as follows: when BV2 cells grew to the logarithmic growth phase, they were inoculated in a 6-well plate at 1×10^6 cells/well and cultured for 24 h. […] After the cells were co-cultured with compound CAK06 for 12 h, the cells were stained according to the instructions of the ROS detection kit, and photographed and analyzed by an inverted fluorescence microscope.

[8] = system: CUMS depression model mice; assay: Open field test in CUMS depression model mice; format: in vivo, C57BL/6J mice; details: 28 days, model 327.22±161.39 cm
Text: as §1

[9] = system: CUMS depression model mice; assay: Sucrose preference test in CUMS depression model mice; format: in vivo, C57BL/6J mice
Text: as §1

[10] = system: PC12 cells; assay: Inhibition of corticosterone (CORT)-induced PC12 cell damage; format: cell-based, rat; details: 24 h
[11] = system: liver, heart, spleen, lung, and kidney tissues; assay: HE staining safety evaluation of mouse tissues; format: in vivo; details: kidney of mice, in words

COc1cc(/C=C2\CNC/C(=C\c3cc(Cl)c(O)c(OC)c3)C2=O)cc(Cl)c1O [CAK06, 3,5-bis ((E)-3-chloro-4-hydroxy-5-methoxybenzylidene) piperidin-4-one]
IC50 values of ABTS captured [1]: 44.95 µg/mL
forced swimming test, depressive symptoms / immobility time ([2]; 10 mg/kg oral once a day): significant reduction in immobility time
immobility time in the forced swimming test ([2]; 10 mg/kg oral once a day): 114.86 ± 84.07 s
forced swimming test, depressive symptoms / immobility time ([2]; 20 mg/kg oral once a day): stronger antidepressant effect
immobility time in the forced swimming test ([2]; 20 mg/kg oral once a day): 54.44 ± 53.38 s
solubility [3]: 171.77 mg/100 g
absorbance (NO release) ([4]; 1 μM (low), 12 h, 540 nm, model 0.153, blank 0.080): 0.145
NO release versus model group ([4]; 1 μM (low)): no significant difference
NO release versus model group ([4]; 5 μM (medium)): significantly improved
NO release versus model group ([4]; 10 μM (high)): significantly improved
expression of antioxidant-related proteins Nrf2 and HO-1 [5]: better expression than the Flu group
cell proliferation rate ([6]; 60 μM drug with 585.8 μM H2O2, 24 h): 73.91±0.69%
effect on survival of H2O2-damaged PC12 cells ([6]; 3.75-60 μM drug, 24 h, in words): time-dependent and concentration-dependent cell protection
ROS fluorescence intensity [7]: decreased in a concentration-dependent manner
overall activity distance in the open field test ([8]; 10 mg/kg oral once a day): 868.90±280.97 cm
overall activity distance in the open field test ([8]; 20 mg/kg oral once a day): 1336.66±264.87 cm
sucrose preference rate ([9]; 10 mg/kg oral once a day, 14th day, in words): failed to significantly increase the sucrose preference rate
sucrose preference rate ([9]; 10 mg/kg oral once a day, 28 days, model 61.36±2.18%): 70.62±2.33%
sucrose preference rate ([9]; 20 mg/kg oral once a day, 14th day, in words): significant increase
sucrose preference rate ([9]; 20 mg/kg oral once a day, 28 days, model 61.36±2.18%): 77.42±2.77%
relative cell proliferation rate ([10]; 60 μM drug with 514.6 μM CORT): 66.95±0.97%
effect on viability of CORT-damaged PC12 cells ([10]; 3.75-60 μM drug with 514.6 μM CORT, in words): time-dependent and concentration-dependent cell protection
HE staining pathology of tissues [11]: basically normal
